Results: paper PMC2216842 (The Journal of General Physiology, 1994)
pIC50: −log10 of the molar value. Like-named read-outs stand apart in the source and are kept apart here.

Columns and labels:
[1] = system: unmodified Na+ channels in GH3 cells; experiment: Whole-cell voltage clamp, tonic and use-dependent block of normal Na+ currents; assay type: cell-based, rat; details: 1 mM; for tonic block of normal Na+ currents: +30 mV test pulse, prepulse -130 mV; for use-dependent block of normal Na+ currents: repetitive +30 mV pulses, 25 ms at 5 Hz
[2] = Solubility in test solution; details: external solution, from 500 mM DMSO stock
[3] = system: BTX-modified Na+ channels in GH3 cells; experiment: Whole-cell voltage clamp, voltage-ramp protocol; assay type: cell-based, rat; details: for effect of external Na+ ions on binding: 0 vs 130 mM external Na+; for voltage dependence of block / pIC50: voltage ramp; for voltage dependence of block: quasi steady state; for change of binding after CT treatment: 0.5 mM CT 5 min; for pIC50: no external Na+
[4] = system: BTX-modified Na+ channels in GH3 cells; assay type: cell-based, rat; details: for enhancement of the inactivation of BTX-modified Na+ channels: benzocaine derivatives

Compound: CCOC(=O)c1ccc(N(C)C)cc1 [N-dimethyl benzocaine, ethyl p-dimethylamino-benzoate]
- left shift in steady-state inactivation [1]: ~ 10 mV
- tonic block of normal Na+ currents [1]: produces a tonic block
- use-dependent block of normal Na+ currents [1]: elicits additional use-dependent block
- solubility [2]: could not reliably dissolve N-dimethyl benzocaine at 3 mM even after heating
- effect of external Na+ ions on binding [3]: no effect
- voltage dependence of block [3]: enhanced by depolarization
- enhancement of the inactivation of BTX-modified Na+ channels [4]: failed to enhance the inactivation

Compound: CCOC(=O)c1ccc(N)cc1 [benzocaine, Benzocaine]
- left shift in steady-state inactivation [1]: about 20 mV
- tonic block of normal Na+ currents [1]: produces a tonic block
- use-dependent block of normal Na+ currents [1]: fails to elicit additional use-dependent block
- solubility [2]: poor solubility of benzocaine at concentrations higher than 3 mM
- effect of external Na+ ions on binding [3]: do not reduce benzocaine binding
- change of binding after CT treatment ([3]; measured from -75 mV to +50 mV, 1 and 3 mM): greatly reduced
- shift of V0.5 toward the depolarizing direction ([3]; 1 mM benzocaine on BTX-modified channels, 130 mM external Na+): about 20 mV
- pIC50 ([3]; at +50 mV): ~2.92
- pIC50 ([3]; at -50 mV): 3.52
- voltage dependence of block [3]: greater at the resting membrane potential (-50 to -90 mV) than at positive potentials (0 to +50 mV)
- pIC50 ([4]; read-out: concentration that inhibits 50% of BTX-modified Na+ currents (IC50), at -70 mV, GH3 cells): 3.70

Compound: COC(=O)[C@H]1[C@@H](OC(=O)c2ccccc2)C[C@@H]2CC[C@H]1N2C [cocaine, (-)-cocaine]
- change of binding after CT treatment ([3]; from 0 to +50 mV, 0.1 or 0.3 mM): small reduction
- change of binding after CT treatment ([3]; from -50 mV to -30 mV, 0.1 or 0.3 mM): slightly enhanced
- voltage dependence of block [3]: significantly stronger at +50 mV than at -50 mV

Compound: CCOC(=O)c1cccc(O)c1 [ethyl 3-hydroxy benzoate]
- enhancement of the inactivation of BTX-modified Na+ channels [4]: acted more or less as benzocaine

Compound: CCOC(=O)c1ccc(O)cc1 [ethyl 4-hydroxy benzoate]
- enhancement of the inactivation of BTX-modified Na+ channels [4]: acted more or less as benzocaine

Compound: COC(=O)c1ccc(N)cc1 [methyl 4-amino benzoate]
- enhancement of the inactivation of BTX-modified Na+ channels [4]: acted more or less as benzocaine

Compound: CCOC(=O)c1cccc(N)c1 [tricaine]
- enhancement of the inactivation of BTX-modified Na+ channels [4]: acted more or less as benzocaine

Compound: batrachotoxin [BTX]
- activation threshold, more negative than that of normal Na+ currents ([3]; BTX-modified channels, threshold near -90 mV): ~ 50 mV
